Laboratory results from ChEMBL document CHEMBL3886234, “Isoform selective phospholipase D inhibitors” (2015).

Molecular target: T1, Phospholipase D1 (Homo sapiens, UniProt Q13393)
T1 sequence (Q13393 whole entry): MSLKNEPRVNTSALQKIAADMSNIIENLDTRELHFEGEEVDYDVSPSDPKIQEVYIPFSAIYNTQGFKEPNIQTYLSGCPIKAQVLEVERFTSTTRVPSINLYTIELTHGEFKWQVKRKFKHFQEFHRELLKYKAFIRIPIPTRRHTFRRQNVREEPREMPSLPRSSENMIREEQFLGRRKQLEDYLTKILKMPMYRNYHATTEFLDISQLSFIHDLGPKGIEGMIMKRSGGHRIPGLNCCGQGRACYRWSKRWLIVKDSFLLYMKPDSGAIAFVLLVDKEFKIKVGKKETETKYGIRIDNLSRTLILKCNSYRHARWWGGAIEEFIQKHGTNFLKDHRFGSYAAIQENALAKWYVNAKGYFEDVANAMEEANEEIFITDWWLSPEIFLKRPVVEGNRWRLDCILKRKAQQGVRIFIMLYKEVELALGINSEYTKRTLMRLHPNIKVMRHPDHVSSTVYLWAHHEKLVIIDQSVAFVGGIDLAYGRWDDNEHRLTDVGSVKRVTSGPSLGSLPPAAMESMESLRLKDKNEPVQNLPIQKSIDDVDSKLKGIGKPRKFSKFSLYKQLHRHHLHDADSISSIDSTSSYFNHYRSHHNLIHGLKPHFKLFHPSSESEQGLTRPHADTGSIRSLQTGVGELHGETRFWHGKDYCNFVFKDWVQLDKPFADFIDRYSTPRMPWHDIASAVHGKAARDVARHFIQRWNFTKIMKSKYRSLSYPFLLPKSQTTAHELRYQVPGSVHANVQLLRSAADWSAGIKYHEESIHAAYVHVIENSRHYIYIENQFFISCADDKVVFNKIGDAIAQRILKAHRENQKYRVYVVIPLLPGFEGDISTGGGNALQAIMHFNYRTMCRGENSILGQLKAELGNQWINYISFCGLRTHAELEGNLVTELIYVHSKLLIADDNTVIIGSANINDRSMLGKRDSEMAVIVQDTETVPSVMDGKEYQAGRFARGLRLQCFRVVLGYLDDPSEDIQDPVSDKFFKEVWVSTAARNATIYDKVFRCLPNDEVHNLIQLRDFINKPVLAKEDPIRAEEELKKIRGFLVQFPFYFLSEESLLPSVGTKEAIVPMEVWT
Experiment: Inhibition Assay: In one aspect, the compound inhibits PLD activity; that is, a compound can inhibit PLD1 activity and/or PLD2 activity. In a further aspect, the compound inhibits PLD1 response in Calu-1 cells. In a further aspect, the compound inhibits PLD2 response in HEK293gfpPLD2 cells. In a further aspect, the compound inhibits in vitro PLD1 response. In a further aspect, the compound …
Type: cell-based

C[C@@H](CN1CCC2(CC1)C(=O)NC[C@@H]2c1ccc(F)cc1)NC(=O)c1ccc(F)cc1
IC50: 1.2 µM
